In patent publication US12233161B1, “Lipids and lipid nanoparticle formulations” (LONGUIDE BIOPHARMA CORPORATION, priority 2024, dated 2025):

What was measured:
[1] = Particle size and PDI of nucleic acid lipid nanoparticle preparations by dynamic light scattering; assay type: physicochemical
Summary of the method: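 LNP solution (about 0.04 mg/mL mRNA before dilution) was diluted in ultrapure water and mixed by gentle pipetting. Particle size and PDI were then measured by dynamic light scattering.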

mice = experiment: In vivo delivery of FLuc-mRNA lipid nanoparticles in mice, in vivo imaging (IVIS)
Summary of the method: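 Mice (n=3) received about 75 μL FLuc-mRNA LNP per mouse intramuscularly (rectus femoris), intravenously (tail vein), intraperitoneally or subcutaneously (back). After injection, D-luciferin (200 μL, 15 mg/mL) was given i.p. 10-15 min before IVIS imaging.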

[2] = Potential characterization of nucleic acid lipid nanoparticle preparations; assay type: physicochemical
Summary of the method: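 Nanoparticles (about 0.04 mg/mL mRNA) were diluted in ultrapure water for Malvern ZEN3700 measurement: 20 μL into 780 μL for potential alone, or 27.5 μL into 200 μL for DLS particle size followed by addition of 600 μL water for potential.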

[3] = DMG-PEG2000:DSPC:Chol:compound 1.00:10.00:33.00:56.00, N/P 42
[4] = DMG-PEG2000:DSPC:Chol:compound 1.40:11.15:38.95:48.50, N/P 30
[5] = IM, DMG-PEG2000:DSPC:Chol:compound 1.40:11.15:38.95:48.50, N/P 30, Fluc-mRNA
[6] = IV, body, DMG-PEG2000:DSPC:Chol:compound 1.40:11.15:38.95:48.50, N/P 30, Fluc-mRNA
[7] = IV, liver, DMG-PEG2000:DSPC:Chol:compound 1.40:11.15:38.95:48.50, N/P 30
[8] = IV, liver, DMG-PEG2000:DSPC:Chol:compound 1.40:11.15:38.95:48.50, N/P 30, Fluc-mRNA
[9] = IV, lung, DMG-PEG2000:DSPC:Chol:compound 1.40:11.15:38.95:48.50, N/P 30
[10] = IV, lung, DMG-PEG2000:DSPC:Chol:compound 1.40:11.15:38.95:48.50, N/P 30, Fluc-mRNA
[11] = IV, spleen, DMG-PEG2000:DSPC:Chol:compound 1.40:11.15:38.95:48.50, N/P 30
[12] = IV, spleen, DMG-PEG2000:DSPC:Chol:compound 1.40:11.15:38.95:48.50, N/P 30, Fluc-mRNA
[13] = DMG-PEG2000:DSPC:Chol:compound 1.40:11.15:38.95:48.50, N/P 20
[14] = IM, DMG-PEG2000:DSPC:Chol:compound 1.40:11.15:38.95:48.50, N/P 20, Fluc-mRNA
[15] = IV, organ not given, DMG-PEG2000:DSPC:Chol:compound 1.40:11.15:38.95:48.50, N/P 20, Fluc-mRNA
[16] = DSPE-PEG5000:DPPC:Chol:compound 1.00:11.15:39.35:48.50, N/P 15
[17] = mRNA LNP, 1.00:4.00:30.00:65.00, N/P 30
[18] = mRNA LNP, 1.40:11.15:38.95:48.50, N/P 30
[19] = mRNA LNP, 1.00:4.00:30.00:65.00, N/P 30, IV, liver
[20] = mRNA LNP, 1.00:4.00:30.00:65.00, N/P 30, IV, lung
[21] = mRNA LNP, 1.00:4.00:30.00:65.00, N/P 30, IV, spleen
[22] = mRNA LNP, 1.40:11.15:38.95:48.50, N/P 30, IM, organ not given
[23] = mRNA LNP, 1.40:11.15:38.95:48.50, N/P 30, IV, liver
[24] = mRNA LNP, 1.40:11.15:38.95:48.50, N/P 30, IV, lung
[25] = mRNA LNP, 1.40:11.15:38.95:48.50, N/P 30, IV, spleen
[26] = mRNA LNP, DMG-PEG2000:DSPC:Chol:lipid 1.40:11.15:38.95:48.50, N/P 30, IV, body
[27] = mRNA LNP, 1.00:10.00:33.00:56.00, N/P 42
[28] = mRNA LNP, 1.00:10.00:33.00:56.00, N/P 42, IV, liver
[29] = mRNA LNP, 1.00:10.00:33.00:56.00, N/P 42, IV, lung
[30] = mRNA LNP, 1.00:10.00:33.00:56.00, N/P 42, IV, spleen

CCCCCCCCCCCCNCC(O)CN(CCCCCN(C)CCCCCN(CC(O)CNCCCCCCCCCCCC)CC(O)C(=O)NCCCCCCCCCCCC)CC(O)C(=O)NCCCCCCCCCCCC (stereo not drawn) [Compound L0303]
PDI [1, 3]: 0.09
Particle size (nm) [1, 3]: 132.10 nm
PDI [1, 4]: 0.10
Particle size (nm) [1, 4]: 122.57 nm
IVIS (mice; [5]): 9.76E+05
IVIS (mice; IV, body, DMG-PEG2000:DSPC:Chol:compound 1.00:10.00:33.00:56.00, N/P 42, Fluc-mRNA): 2.40E+08
IVIS (mice; [6]): 1.33E+08
% of organ targeting (mice; IV, liver, DMG-PEG2000:DSPC:Chol:compound 1.00:10.00:33.00:56.00, N/P 42): 0.64%
IVIS (mice; IV, liver, DMG-PEG2000:DSPC:Chol:compound 1.00:10.00:33.00:56.00, N/P 42, Fluc-mRNA): 2.70E+06
% of organ targeting (mice; [7]): 2.25%
IVIS (mice; [8]): 7.60E+06
% of organ targeting (mice; IV, lung, DMG-PEG2000:DSPC:Chol:compound 1.00:10.00:33.00:56.00, N/P 42): 98.72%
IVIS (mice; IV, lung, DMG-PEG2000:DSPC:Chol:compound 1.00:10.00:33.00:56.00, N/P 42, Fluc-mRNA): 4.17E+08
% of organ targeting (mice; [9]): 96.16%
IVIS (mice; [10]): 3.25E+08
% of organ targeting (mice; IV, spleen, DMG-PEG2000:DSPC:Chol:compound 1.00:10.00:33.00:56.00, N/P 42): 0.64%
IVIS (mice; IV, spleen, DMG-PEG2000:DSPC:Chol:compound 1.00:10.00:33.00:56.00, N/P 42, Fluc-mRNA): 2.70E+06
% of organ targeting (mice; [11]): 1.59%
IVIS (mice; [12]): 5.38E+06
Zeta potential (mV) [2, 4]: 12.97 mV

CCCCCCCCCCOC(=O)C(O)CN(CCN(C)CCN(CC(O)C(=O)OCCCCCCCCCC)CC(O)C(=O)OCCCCCCCCCC)CC(O)C(=O)OCCCCCCCCCC (stereo not drawn) [Compound L0337]
PDI [1, 4]: 0.2
Particle size (nm) [1, 4]: 102.07 nm
IVIS (mice; [5]): 3.70E+05
IVIS (mice; [6]): 2.05E+07
% of organ targeting (mice; [7]): 8.23%
IVIS (mice; [8]): 2.66E+06
% of organ targeting (mice; [9]): 2.94%
IVIS (mice; [10]): 9.51E+05
% of organ targeting (mice; [11]): 88.83%
IVIS (mice; [12]): 2.87E+07
Zeta potential (mV) [2, 4]: 28.07 mV

CCCCCCCCCCOC(=O)C(O)CN(CCCCCN(CC(O)C(=O)OCCCCCCCCCC)CC(O)C(=O)OCCCCCCCCCC)CC(O)C(=O)OCCCCCCCCCC (stereo not drawn) [Compound L0318]
PDI [1, 13]: 0.25
Particle size (nm) [1, 13]: 571.13 nm
IVIS (mice; [14]): 5.83E+05
IVIS (mice; [15]): 2.09E+05
Zeta potential (mV) [2, 13]: 11.23 mV

CCCCCCCCCCN(C)C(=O)C(O)CN(C)CCN(C)CCN(C)CC(O)C(=O)N(C)CCCCCCCCCC (stereo not drawn) [Compound L0348]
PDI [1, 16]: 0.14
Particle size (nm) [1, 16]: 118.20 nm
IVIS (mice; Fluc-mRNA LNP, route IM, organ not given, formulation, molar ratio and N/P as in the table): 3.49E+05
IVIS (mice; IV, organ not given, DSPE-PEG5000:DPPC:Chol:compound 1.00:11.15:39.35:48.50, N/P 15, Fluc-mRNA): 4.84E+05
Zeta potential (mV) [2, 16]: 5.54 mV

CCCCCCCCCCCCNC(=O)CCN(CCC(=O)NCCCCCCCCCCCC)CCN(C)CCN(CCC(=O)NCCCCCCCCCCCC)CCC(=O)NCCCCCCCCCCCC [L0264-Control, reference compound]
PDI [1, 17]: 0.17
Particle size (nm) [1, 17]: 97.75 nm
PDI [1, 18]: 0.18
Particle size (nm) [1, 18]: 91.53 nm
% of organ targeting (mice; [19]): 0.58%
IVIS (mice; [19]): 1.67E+06
% of organ targeting (mice; [20]): 86.18%
IVIS (mice; [20]): 2.49E+08
% of organ targeting (mice; [21]): 13.25%
IVIS (mice; [21]): 3.82E+07
IVIS (mice; [22]): 1.37E+05
% of organ targeting (mice; [23]): 1.25%
IVIS (mice; [23]): 8.01E+05
% of organ targeting (mice; [24]): 74.91%
IVIS (mice; [24]): 4.81E+07
% of organ targeting (mice; [25]): 23.85%
IVIS (mice; [25]): 1.53E+07
IVIS (mice; mRNA LNP, DMG-PEG2000:DSPC:Chol:lipid 1.00:4.00:30.00:65.00, N/P 30, IV, body): 1.10E+08
IVIS (mice; [26]): 2.50E+07
Zeta potential (mV) [2, 17]: 13.40 mV
Zeta potential (mV) [2, 18]: 16.43 mV

CCCCCCCCCCOC(=O)C(O)CN(CCCN(CC(O)C(=O)OCCCCCCCCCC)CC(O)C(=O)OCCCCCCCCCC)CCCN(CC(O)C(=O)OCCCCCCCCCC)CC(O)C(=O)OCCCCCCCCCC (stereo not drawn) [Compound L0339]
PDI [1, 4]: 0.15
Particle size (nm) [1, 4]: 126.63 nm
IVIS (mice; [5]): 8.33E+07
IVIS (mice; [6]): 5.92E+07
% of organ targeting (mice; [7]): 28.78%
IVIS (mice; [8]): 1.17E+07
% of organ targeting (mice; [9]): 0.41%
IVIS (mice; [10]): 1.67E+05
% of organ targeting (mice; [11]): 70.81%
IVIS (mice; [12]): 2.87E+07
Zeta potential (mV) [2, 4]: 12.37 mV

CCCCCCCCCCOC(=O)C(O)CN(CCCCCCCN(CC(O)C(=O)OCCCCCCCCCC)CC(O)C(=O)OCCCCCCCCCC)CC(O)C(=O)OCCCCCCCCCC (stereo not drawn) [Compound L0321]
PDI [1, 13]: 0.48
Particle size (nm) [1, 13]: 207.73 nm
IVIS (mice; [14]): 1.37E+05
IVIS (mice; [15]): 2.11E+05
Zeta potential (mV) [2, 13]: −0.61 mV

CCCCCCCCCCCCNC(=O)CCN(CCCN(C)CCCN(CCC(=O)NCCCCCCCCCCCC)CCC(=O)NCCCCCCCCCCCC)CCC(=O)NCCCCCCCCCCCC [L0263-Control, reference compound]
PDI [1, 27]: 0.13
Particle size (nm) [1, 27]: 112.27 nm
PDI [1, 18]: 0.16
Particle size (nm) [1, 18]: 102.50 nm
% of organ targeting (mice; [28]): 0.59%
IVIS (mice; [28]): 5.33E+06
% of organ targeting (mice; [29]): 97.16%
IVIS (mice; [29]): 8.80E+08
% of organ targeting (mice; [30]): 2.25%
IVIS (mice; [30]): 2.04E+07
IVIS (mice; [22]): 7.79E+05
% of organ targeting (mice; [23]): 1.59%
IVIS (mice; [23]): 3.11E+06
% of organ targeting (mice; [24]): 80.11%
IVIS (mice; [24]): 1.57E+08
% of organ targeting (mice; [25]): 18.30%
IVIS (mice; [25]): 3.59E+07
IVIS (mice; mRNA LNP, DMG-PEG2000:DSPC:Chol:lipid 1.00:10.00:33.00:56.00, N/P 42, IV, body): 1.28E+08
IVIS (mice; [26]): 5.69E+07
Zeta potential (mV) [2, 27]: 11.13 mV
Zeta potential (mV) [2, 18]: 10.97 mV
